This experiment relates to HEK293-STF3A cells. The experiment is described as follows: STF3A assay (STF luciferase reporter in Wnt3A-expressing HEK293 cells). The class given is cell-based. The note with it: Homo sapiens, 24 h, 1 day of treatment. In outline:
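HEK293 cells carrying the STF reporter and expressing Wnt3A, seeded 2×10^4 per well overnight, then treated 1 day with compound at final 50 μM to 1.5 nM. Luciferase activity read by luminescence after Steady-Glo reagent, 10 min at room temperature.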

For `CN1C(=O)C2=C(C1=O)N(CC(=O)Nc1ccc(-c3ccccc3)cc1)CCC2` [Compound 70, N-([1,1′-biphenyl]-4-yl)-2-(6-methyl-5,7-dioxo-2,3,4,5,6,7-hexahydro-1H-pyrrolo[3,4-b]pyridin-1-yl)acetamide], the half-inhibitory concentration (IC50) (in general, the concentration that inhibits the measured activity by half) is less than 100 nM.
For `CN1C(=O)C2=C(C1=O)N(CC(=O)Nc1ccc(-c3ccncc3)nn1)CCC2` [Compound 71, 2-(6-methyl-5,7-dioxo-2,3,4,5,6,7-hexahydro-1H-pyrrolo[3,4-b]pyridin-1-yl)-N-(6-(pyridin-4-yl)pyridazin-3-yl)acetamide], the 50% inhibitory concentration (IC50) was less than 1000 nM.
Turning to `CN1C(=O)C2=C(C1=O)N(CC(=O)Nc1ccc(-c3cncc(F)c3)nn1)CCC2` [Compound 72, N-(6-(5-fluoropyridin-3-yl)pyridazin-3-yl)-2-(6-methyl-5,7-dioxo-2,3,4,5,6,7-hexahydro-1H-pyrrolo[3,4-b]pyridin-1-yl)acetamide], the IC50 is less than 100 nM.
`CN1C(=O)C2=C(C1=O)N(CC(=O)Nc1ccc(-c3ccncn3)cc1)CCC2` [Compound 73, 2-(6-methyl-5,7-dioxo-2,3,4,5,6,7-hexahydro-1H-pyrrolo[3,4-b]pyridin-1-yl)-N-(4-(pyrimidin-4-yl)phenyl)acetamide] yielded a concentration for half-maximal inhibition (IC50) greater than 10000 nM.
Under `CN1C(=O)C2=C(C1=O)N(CC(=O)Nc1ccc(-c3ncccn3)cc1)CCC2` [Compound 74, 2-(6-methyl-5,7-dioxo-2,3,4,5,6,7-hexahydro-1H-pyrrolo[3,4-b]pyridin-1-yl)-N-(4-(pyrimidin-2-yl)phenyl)acetamide] stands less than 1000 nM; under `CN1C(=O)C2=C(C1=O)N(CC(=O)Nc1ccc(-c3cncnc3)cc1)CCC2` [Compound 75, 2-(6-methyl-5,7-dioxo-2,3,4,5,6,7-hexahydro-1H-pyrrolo[3,4-b]pyridin-1-yl)-N-(4-(pyrimidin-5-yl)phenyl)acetamide], less than 100 nM.
On to `CN1C(=O)C2=C(C1=O)N(CC(=O)Nc1ccc(-c3ccccn3)cc1)CCC2` [Compound 76, 2-(6-methyl-5,7-dioxo-2,3,4,5,6,7-hexahydro-1H-pyrrolo[3,4-b]pyridin-1-yl)-N-(4-(pyridin-2-yl)phenyl)acetamide], for which the concentration for half-maximal inhibition (IC50) was less than 100 nM.
Under `CN1C(=O)C2=C(C1=O)N(CC(=O)Nc1ccc(-c3cccnc3)cc1)CCC2` [Compound 77, 2-(6-methyl-5,7-dioxo-2,3,4,5,6,7-hexahydro-1H-pyrrolo[3,4-b]pyridin-1-yl)-N-(4-(pyridin-3-yl)phenyl)acetamide] stands less than 100 nM; under `Cc1cc(-c2ccccc2)ccc1NC(=O)CN1CCCC2=C1C(=O)N(C)C2=O` [Compound 78, 2-(6-methyl-5,7-dioxo-2,3,4,5,6,7-hexahydro-1H-pyrrolo[3,4-b]pyridin-1-yl)-N-(3-methyl-[1,1′-biphenyl]-4-yl)acetamide], greater than 10000 nM.
In turn, `CN1C(=O)C2=C(C1=O)N(CC(=O)Nc1ccc(-c3ccncc3)cc1)CCC2` [Compound 79, 2-(6-methyl-5,7-dioxo-2,3,4,5,6,7-hexahydro-1H-pyrrolo[3,4-b]pyridin-1-yl)-N-(4-(pyridin-4-yl)phenyl)acetamide] returned a concentration for half-maximal inhibition (IC50) of less than 100 nM.
The result for `CN1C(=O)C2=C(C1=O)N(CC(=O)Nc1ccc(-c3ccccc3)c(F)c1)CCC2` [Compound 80, N-(2-fluoro-[1,1′-biphenyl]-4-yl)-2-(6-methyl-5,7-dioxo-2,3,4,5,6,7-hexahydro-1H-pyrrolo[3,4-b]pyridin-1-yl)acetamide] reads less than 100 nM; that for `COc1cc(-c2ccccc2)ccc1NC(=O)CN1CCCC2=C1C(=O)N(C)C2=O` [Compound 81, N-(3-methoxy-[1,1′-biphenyl]-4-yl)-2-(6-methyl-5,7-dioxo-2,3,4,5,6,7-hexahydro-1H-pyrrolo[3,4-b]pyridin-1-yl)acetamide], greater than 10000 nM.
The compound `Cc1cc(NC(=O)CN2CCCC3=C2C(=O)N(C)C3=O)ccc1-c1ccccc1` [Compound 82, 2-(6-methyl-5,7-dioxo-2,3,4,5,6,7-hexahydro-1H-pyrrolo[3,4-b]pyridin-1-yl)-N-(2-methyl-[1,1′-biphenyl]-4-yl)acetamide] had an IC50 of less than 100 nM.

Source of the values: patent publication US9981964B2 (Agency for Science, Technology and Research, priority 2013, dated 2018).
